Test results published in EP0773292A1, “Immortalised embryonic hippocampal cells and their use” (BAYER AG, priority 1995, dated 1997).

Assays:
Format in all cases: cell-based, murine
HC e/n XVB cells = assay: Electrophysiology: whole-cell patch-clamp, ligand-activated currents; details: for ligand-activated currents: membrane potential clamped to -70mV
Description: (§1) Electrophysiological setup: Membrane currents were measured with the patch-clamp technique in the whole-cell recording configuration (Hamill et al. 1981, Pfluegers Arch. 391:85-100). Current signals were amplified with conventional electronics (EPC-9 amplifier, HEKA Elektronik GmbH, Lambrecht, Germany), filtered at 10kHz, and sampled at 5 kHz by an interface connected to an IBM AT-compatible computer system, which also served as a stimulus generator.
(§2) Solutions and electrodes: The standard bathing solution contained (in mM): Nacl 150, KCL 5, MgCl2 1.8, HEPES 5, and glucose 10. In some experiments an equimolar amount of NaCl was replaced by 5mM BaCl2. Recording pipettes had resistances about 5MΩ (Hilgenberg, Malsfeld, Germany). The pipettes contained (in mM): KCL 140, CaCl2 0.5, EGTA 5, MgCl2 2, and HEPES 10. The pH was adjusted to 7.4. In some experiments the pipette solution was designed to minimize the contribution of voltage-activated currents. In this case, investigating the ligand-activated currents, the pipette solution contained (in mM): CsCl 140, EGTA 10, and HEPES 10.
(§3) Ligands were dissolved in the extracellular saline solution and applied via an U-tube application system. To record ligand-induced currents, the membrane potential was clamped to -70mV. For measurements of voltage-activated currents, cells were held at -70mV and every second the membrane was stepped through a 50 msec. de- or hyperpolarising test pulse to a potential between -170 and +20 mV.

HNMMCV13.1.E [1] = assay: as above; details: 13.1.E; membrane potential clamped to -70mV
Description: as §1, §2, §3

HC e/n XV.B cells = assay: Ca2+-imaging (Fura-2), rise in intracellular calcium
Description: (§4) Fluorescent Probe: Dynamic changes of intracellular calcium concentration were measured using the Fura-2 fluorescent probe (Roe et al. 1990, Cell Calcium 11:63-73). This fluorescent dye was chosen because of its selectivity, high quantum yield and extinction co-efficient. Fura-2 permeates the living cell as a acetoxymethylester and becomes trapped within the cell after hydrolysis by intracellular esterases. The calcium-sensitive free acid of Fura-2 is able to bind to calcium ions inside the cell. Fura-2 has an excitation maximum at 380 nm and the Fura2/calcium complex peaks at 340 nm. A change in intracellular calcium concentration was calculated by recording fluorescent video images at wavelengths of 340nm and 380nm excitation and 510nm emission and by dividing the grey values of the digitized video images of 380nm from 340nm.
(§5) Loading cells with Fura-2: A stock solution with 2mM Fura-2-acetoxymethylester in dimethylsulfoxide (DMSO) was diluted to 5-10 µM with serum free Minimal Essential Medium (MEM, Gibco) containing 1.5% bovine serum albumin and 5 mM calcium chloride. The cells were incubated in a Falcon 96 well plate for 45-60 minutes at 37°C. Subsequently the cells were washed twice in N-(2-Hydroxyethyl)piperazine-N'-(2-ethanesulfonic acid) (HEPES, 5mM) buffered Tyrode solution (HEPES buffered salt solution containing 130 mM NaCl, 5 mM KCl, 2 mM CaCl2, 1 mM MgCl2, 5mM NaHCO3, 11 mM Glucose).
(§6) Imaging procedure: 100 µl of Tyrode buffer was added to the plate wells and the cells were sequencially exposed to light at 340 nm and 380 nm under a fluorescent microscope (Nikon Diaphot). The exposition time was 100 ms. A series of video images at 3 second intervals was acquired and stored as digitised pictures in the image boards of an image analysis computer (Leica, Quantimet 570). After the acquisition of 8 images the test substances were applied. The grey levels of the cells, which correspond to the fluorescence intensity, were measured in the recorded video images. The ratio was determined by dividing the measured grey levels of the "380 nm images" by the grey levels of the "340 nm images" either from averaged images or from individual cells. For averaged results, the grey levels were measured over the whole images.
(§7) The cells were loaded with Fura 2/AM between day 3 and 7 in culture. A number of agonists were tested for their ability to activate specific receptors on the cell surface which leads to a rise in intracellular calcium. The rise in calcium concentration in the cytoplasm can occur after activation of specific calcium channels in the cell membrane, after activation of neurotransmitter receptors directly coupled to ion channels that are permeable to calcium ions (i.e. NMDA or AMPA type glutamate receptors), or by activation of receptors, which propagate the signal through the activation of specific G-proteins, which regulate the activity of different enzymes in the interior of the cell (Connor, Cell Calcium 14 (1993), 185-200; Crouch and Hendry, Medical Res. Rev. 13 (1993), 105-123). The activation of phospholipase C generates the second messengers diacylglycerol and inositoltriphosphate from phospholipids in the cell membrane. The binding of inositoltriphosphate to receptors localised on internal vesicles which store calcium ions leads to a transient rise in the concentration of calcium ions in the cytoplasm (Berridge, M.J. 1993, Nature 361: 315-325).

HNMMCV11.2.0 = assay: as above
Description: as §4, §5, §6, §7

HNMMCV13.1.E [2] = assay: as above
Description: as §4, §5, §6, §7

HNMMCV13.1.F = assay: as above
Description: as §4, §5, §6, §7

HNMMCV14.1.A [3] = assay: as above
Description: as §4, §5, §6, §7

HNMMCV14.1.A [4] = assay: Electrophysiology: whole-cell patch-clamp, ligand-activated currents
Description: as §1, §2, §3

[5] = system: v-myc-expressing lines and clones; assay: Induction of differentiation; details: 1mM dbcAMP
Description: For experiments in the presence of growth factors or other differentiation inducing agents, the primary cell cultures or the immortalised cell lines were cultured in the presence of one or a combination of the following: β-FGF, 1ng/ml, (Collaborative Research), EGF; 5 ng/ml or 10 ng/ml, (Collaborative Research), NGF (10 ng/ml, Collaborative Reasearch), dibutyryl cyclic adenosine monophosphate (dbcAMP, 1mM, Sigma, Heidelberg), retinoic acid (5 µM; Sigma), IL-7 (50 U/ml), TGFα (5ng/ml).
To induce differentiation in vitro several combinations of the following factors were used: retinoic acid (RA, 10 µM), NGF, β-FGF, EGF, IL-7, TGFα, dbcAMP (1mM). In addition the effect of co-culture with cortical glial cells originating from postnatal day 0 to 1 and granule neurons originating from postnatal day 6 mice was investigated.

## N[C@@H](CCC(=O)O)C(=O)O [Glutamate, L-glutamate]
HC e/n XVB cells; XV. B (with EGF, undifferentiated)
  ligand-activated currents: -
HC e/n XVB cells; XV. B/ - EGF (differentiated)
  ligand-activated currents: ++ (++: 30-70% positive cells)
HNMMCV13.1.E [1]
  ligand-activated currents: + (+: 10-30% positive cells)

## C=C(C)[C@H]1CN[C@H](C(=O)O)[C@H]1CC(=O)O [Kainate, kainic acid]
HC e/n XV.B cells
  transient rise in intracellular calcium concentration: reproducible calcium signal
HNMMCV11.2.0
  transient calcium currents after the application of agonists and antagonists: -
  transient rise in intracellular calcium concentration: did not result in a transient rise in intracellular calcium concentrations
HNMMCV13.1.E [2]
  transient calcium currents after the application of agonists and antagonists: -
  transient rise in intracellular calcium concentration: did not result in a transient rise in intracellular calcium concentrations
HNMMCV13.1.F
  transient calcium currents after the application of agonists and antagonists: -
  transient rise in intracellular calcium concentration: did not result in a transient rise in intracellular calcium concentrations
HNMMCV14.1.A [3]
  transient calcium currents after the application of agonists and antagonists: -
  transient rise in intracellular calcium concentration: did not result in a transient rise in intracellular calcium concentrations
HC e/n XVB cells
  I/V curve of the ligand response: linear
  ligand induced inward currents: evoked responses with different peak amplitudes
  reversal potential of the ligand-activated current: 0 mV
HNMMCV14.1.A [4]
  ligand-activated currents: + / -

## CCCC(=O)Nc1ncnc2c1ncn2[C@@H]1O[C@@H]2COP(=O)(O)O[C@H]2[C@H]1OC(=O)CCC [dbcAMP, dibutyryl cyclic adenosine monophosphate]
[5]; cell line HNMMCV11.2.
  expression of MAP-2: induction of the expression of MAP-2
[5]; v-myc-expressing lines and clones
  differentiation of the cells: induced a partial differentiation
